Test results taken from US9545386B2, “Methods of treating infectious diseases” (SLIPPERY ROCK UNIVERSITY FOUNDATION, INC., priority 2007, dated 2017).

Key:
Assay type in all cases: cell-based
[1] = test system: Trypanosoma avium trypomastigotes; test: In vitro antitrypanosomal bioassay, trypomastigote counts (Probit LC50/LC95); details: T. avium
Experimental: (§1) In this study, 75 μl of Locke's nematode saline (L.N.S.) solution with approximately 1.0×10^5 trypomastigotes/ml of each organism were placed in 15 wells of a cell culture plate. For T. mega, T. conorhini and T. avium, stock concentrations of eryngial (1, 2, 3 and 4 mg/ml) with 0.04% (w/v) Triton X-100 were prepared in L.N.S. Triton X-100 acted as an emulsifier for eryngial. Triplicate samples of each eryngial concentration were prepared by adding 75 μl of the stock to the wells with trypomastigotes of each species. The number of trypanosomes in each well therefore approximated 5×10^4/ml, while final concentrations of eryngial in the wells were 0.5, 1.0, 1.5, and 2.0 mg/ml, respectively. Each sample also had 0.02% Trition X-100. The control samples had no eryngial. The number of trypomastigotes that were present in 20 μl sub-samples of each well was determined using a hemacytometer at 0, 24 and 48 hr. A count of the trypanosomes in each grid was recorded and the average number of organisms per milliliter was determined. The above procedure was repeated to determine the effect of eryngial on T. rangeli. However, the final concentration of eryngial, the test compound, ranged from 0.15 to 0.9 mg/ml.

[2] = test system: Trypanosoma conorhini trypomastigotes; test: as above; details: T. conorhini; for 24 hr LC95 ± 95% confidence intervals: 24 hr in vitro
Experimental: as §1

[3] = test system: Trypanosoma mega trypomastigotes; test: as above; details: T. mega; for 24 hr LC95 ± 95% confidence intervals: 24 hr in vitro
Experimental: as §1

[4] = test system: Trypanosoma rangeli trypomastigotes; test: as above; details: T. rangeli; for 24 hr LC95 ± 95% confidence intervals: 24 hr in vitro, 0.02% Triton X-100; for 48 hr LC95 ± 95% confidence intervals: 48 hr in vitro
Experimental: as §1

[5] = test system: Ancylostoma caninum infective larvae; test: In vitro bioassay of infective larvae, immobilization and lethal doses (eosin, Probit); details: for 24 hr ID50 ± 95% confidence intervals: immobilize 50%; for 24 hr ID90 ± 95% confidence intervals: immobilize 90%
Experimental: (§2) Strongyloides stercoralis infective larvae were harvested from charcoal coprocultures in nematode saline solution. The larvae were supplied by the Parasitology Laboratory, Department of Pathobiology, University of Pennsylvania. The strain of larvae was a human strain of the parasitic nematode that had been maintained for over ten years in canines by daily prednisolone treatment (2 mg/kg per os, once daily. Parastrongyloides trichosuri and Ancylostoma caninum infective larvae were also supplied by the same source as for S. stercoralis. Haemonchus contortus infective larvae were harvested from charcoal coprocultures in nematode saline solution prepared from infected sheep feces obtained from Merck Parasites Laboratory.
(§3) The 24 hr 50% and 90% immobilization doses (ID50 and ID90), and 50% and 90% lethal doses (LD50 and LD90) of eryngial (mg/ml) were investigated in vitro using infective larvae of all four parasitic nematodes. Each species was exposed to a range of eryngial dilutions by adding known volumes of a homogeneous ‘wormy’ solution (infective larvae in nematode saline solution) to known volumes of an eryngial stock suspension (10 mg/ml of nematode saline solution). Each dilution, including the control (0 mg/ml eryngial), was prepared in triplicate and also contained eosin (0.01%, w/v), which was used as an indicator of mortality, and Triton X-100 (1.0%, v/v).
(§4) Using S. stercoralis, P. trichosuri, H. contortus and A. caninum infective larvae, eryngial dilutions, excluding the controls, ranged from 0.05 to 1.15 mg/ml; 0.01 to 1.0 mg/ml; 0.5 to 2.0 mg/ml; and 0.8 to 3.0 mg/ml, respectively. Sub-sample (10 μl) counts of larvae that were mobile, immobile but not stained and stained, were done at the start of each bioassay and at 24 hr intervals for two days. Each sub-sample contained approximately 50 infective larvae.
(§5) Probit analysis was used to determine 24 hr and 48 hr immobilization and lethal doses for eryngial and ivermectin, respectively.

[6] = test system: Parastrongyloides trichosuri infective larvae; test: as above; details: for 24 hr ID50 ± 95% confidence intervals / 24 hr ID90 ± 95% confidence intervals / 24 hr LD50 ± 95% confidence intervals / 24 hr LD90 ± 95% confidence intervals: P. trichosuri infective larvae, 24 hr in vitro; for 24 hr ID50 ± 95% confidence intervals: immobilize 50%; for 24 hr ID90 ± 95% confidence intervals: immobilize 90%; for 24 hr LD50 ± 95% confidence intervals: kill 50%; for 24 hr LD90 ± 95% confidence intervals: kill 90%
Experimental: as §2, §3, §4, §5

[7] = 48 hr in vitro, listed as eryngial
[8] = A. caninum infective larvae, 24 hr in vitro
[9] = A. caninum infective larvae, 24 hr in vitro, listed as eryngial

In the case of `CCCCCCCCC/C=C/C=O` [Eryngial, trans-2-dodecenal], the “24 hr LC50 ± 95% confidence intervals” value ([1]; 24 hr in vitro) is reported as 1.19 (0.96-1.40) mg/ml, the “24 hr LC95 ± 95% confidence intervals” value ([1]; 24 hr in vitro) is reported as 3.12 (2.57-4.16) mg/ml and the “24 hr LC95 ± 95% confidence intervals” value ([1]; 24 hr in vitro, listed as eryngial) is reported as 3.12 mg/mL. The “48 hr LC50 ± 95% confidence intervals” value ([1]; 48 hr in vitro) was 0.76 (0.63-0.87) mg/ml, the “48 hr LC95 ± 95% confidence intervals” value ([1]; 48 hr in vitro) was 2.31 (1.87-3.26) mg/ml and the “48 hr LC95 ± 95% confidence intervals” value [1, 7] was 1.02 mg/mL. The “24 hr LC95 ± 95% confidence intervals” value [2] was 2.91 (2.22-4.69) mg/ml, the “24 hr LC95 ± 95% confidence intervals” value ([2]; listed as eryngial) was 2.91 mg/mL and the “48 hr LC50 ± 95% confidence intervals” value ([2]; 48 hr in vitro) was 0.68 (0.62-0.75) mg/ml. For the same compound, the “48 hr LC95 ± 95% confidence intervals” value ([2]; 48 hr in vitro) was 1.02 (0.91-1.20) mg/ml, the “48 hr LC95 ± 95% confidence intervals” value [2, 7] was 1.14 mg/mL and the “24 hr LC95 ± 95% confidence intervals” value [3] was 2.85 (2.20-4.40) mg/ml. For the same compound, the “24 hr LC95 ± 95% confidence intervals” value ([3]; listed as eryngial) was 2.85 mg/mL, the “48 hr LC50 ± 95% confidence intervals” value ([3]; 48 hr in vitro) was 0.50 (0.39-0.58) mg/ml and the “48 hr LC95 ± 95% confidence intervals” value ([3]; 48 hr in vitro) was 1.14 (0.95-1.56) mg/ml. For the same compound, the “48 hr LC95 ± 95% confidence intervals” value [3, 7] was 2.31 mg/mL, the “24 hr LC95 ± 95% confidence intervals” value [4] was 0.45 (0.38-0.55) mg/ml and the “24 hr LC95 ± 95% confidence intervals” value ([4]; listed as eryngial) was 0.45 mg/mL. The “48 hr LC95 ± 95% confidence intervals” value [4] was 0.31 (0.26-0.43) mg/ml, the “48 hr LC95 ± 95% confidence intervals” value ([4]; listed as eryngial) was 0.31 mg/mL and the “increase in the dose required to immobilize 50%” value ([5]; 24 hr ID50, A. caninum relative to P. trichosuri) was 41.9 fold. For the same compound, the “24 hr ID50 ± 95% confidence intervals” value [5, 8] was 0.545 (0.440-0.641) mg/ml, the “24 hr ID50 ± 95% confidence intervals” value [5, 9] was 0.545 mg/mL and the “24 hr ID90 ± 95% confidence intervals” value [5, 8] was 0.867 (0.717-1.445) mg/ml. For the same compound, the “24 hr ID90 ± 95% confidence intervals” value [5, 9] was 0.867 mg/mL, the “24 hr LD50 ± 95% confidence intervals” value ([5]; A. caninum infective larvae, kill 50%, 24 hr in vitro) was 0.608 (0.429-0.765) mg/ml and the “24 hr LD90 ± 95% confidence intervals” value ([5]; A. caninum infective larvae, kill 90%, 24 hr in vitro) was 1.178 (0.913-2.100) mg/ml. For the same compound, the “increased sensitivity to eryngial (90% immobilization)” value ([6]; 24 hr ID90, P. trichosuri compared to A. caninum) was 9.4 fold, the “increased sensitivity to eryngial (90% immobilization)” value ([6]; 24 hr ID90, P. trichosuri over H. contortus) was 8.5 fold and the “increase in sensitivity to eryngial (50% mortality doses)” value ([6]; 24 hr LD50, P. trichosuri over A. caninum) was 5.8 fold. For the same compound, the “increase in sensitivity to eryngial (50% mortality doses)” value ([6]; 24 hr LD50, P. trichosuri over H. contortus) was 17.1 fold, the “increased sensitivity to eryngial (90% mortality doses)” value ([6]; 24 hr LD90, P. trichosuri over A. caninum) was 4 fold and the “increased sensitivity to eryngial (90% mortality doses)” value ([6]; 24 hr LD90, P. trichosuri over H. contortus) was 9.3 fold. The “24 hr ID50 ± 95% confidence intervals” value [6] was 0.013 (0.007-0.030) mg/ml, the “24 hr ID50 ± 95% confidence intervals” value ([6]; listed as eryngial) was 0.013 mg/mL and the “24 hr ID90 ± 95% confidence intervals” value [6] was 0.092 (0.051-0.201) mg/ml. The “24 hr ID90 ± 95% confidence intervals” value ([6]; listed as eryngial) was 0.092 mg/mL, the “24 hr LD50 ± 95% confidence intervals” value [6] was 0.105 (0.084-0.133) mg/ml and the “24 hr LD50 ± 95% confidence intervals” value ([6]; listed as eryngial) was 0.105 mg/mL. The “24 hr LD90 ± 95% confidence intervals” value [6] was 0.297 (0.214-0.515) mg/ml and the “24 hr LD90 ± 95% confidence intervals” value ([6]; listed as eryngial) was 0.297 mg/mL.
